Consider nine compounds from patent publication US20220064196A1, “EGFR Inhibitors, Compositions and Methods Thereof” (Betta Pharmaceuticals Co., Ltd., priority 2019, published 2022).

In data set [1] the target is EGFR WT (Homo sapiens, UniProt P00533). Put plainly: Kinase assay (mobility shift), EGFR wildtype. The data set is classed as biochemical. Particulars: top concentration 300 nM. As for the experimental part:
(§1) Test 1 Kinase Assay for EGFR Del19/T790M/C797S and EGFR Wildtype
(§2) Enzyme reaction protocol are as follows:
(§3) 1. Preparing 1* Kinase buffer as followed.
(§4) 2. Preparing Compound Concentration Gradient: Compounds were tested at a concentration of 300 nM, diluted to 100-fold final concentration in 100% DMSO solution in 96-well plates, and compounds were diluted 3 times with Precision, 10 concentrations. Each concentration of the compound was then further diluted to a 5-fold final concentration of the intermediate dilution solution using 1* Kinase buffer.
(§5) 3.5 μL of each of the prepared intermediate dilution compounds was separately added to the compound wells of the 384-well plate, and each concentration was tested for duplicate wells; 5 μL of 5% DMSO was added to the negative control wells and the positive control wells, respectively.
(§6) 4. 2.5-fold final concentration of the kinase solution was prepared using 1*Kinase buffer.
(§7) 5. Add 10 μL of 2.5-fold final concentration of kinase solution to the compound well and positive control well; add 10 μL of 1*Kinase buffer to the negative control well.
(§8) 6. Centrifuge at 1000 rpm for 30 seconds, shake the reaction plate and incubate for 10 minutes at room temperature.
(§9) 7. A mixed solution of 2.5 times the final concentration of ATP and Kinase substrate (5-FAM-EEPLYWSFPAKKK-CONH2) was prepared using 1*Kinase buffer.
(§10) 8. 10 μL of a 2.5-fold final concentration of a mixed solution of ATP and a substrate was added to initiate the reaction.
(§11) 9. Centrifuge the 384-well plate at 1000 rpm for 30 seconds, mix by shaking, and incubate at room temperature for the corresponding time.
(§12) 10. Add 30 μL of the stop solution to stop the kinase reaction, centrifuge at 1000 rpm for 30 seconds, and mix by shaking.
(§13) 11. Read the conversion rate with Caliper EZ Reader.
(§14) Convert conversion values to inhibition values:
(§15) Percent inhibition 32 (max-conversion)/(max-min)*100.
(§16) “max” stands for the mean value of the positive control well ratio; “min” stands for the mean value of the negative control well.
(§17) Fit the data in log(inhibitor) vs. response Variable slope of GraphPad Prism 5 to obtain IC50 values.
(§18) Equation used is: Y=Bottom+(Top-Bottom)/(1+(IC50/X)^HillSlope)

In data set [2] the target is Ba/F3-Del19/T790M/C797S (Homo sapiens, UniProt P00533, T790M/C797S, cells depend on it, form not given). Nature of the data set: Ba/F3-Del19/T790M/C797S cells proliferation assay (CellTiter Glo). The data set is classed as cell-based. Conditions: cell proliferation, 72 h, read-out: Ba/F3-Del19/T790M/C797S IC50. The protocol:
(§19) a) The medium was preheated in a 37°0 C. water bath in advance.
(§20) b) Remove the cryogenic vials from the liquid nitrogen tank, quickly put it into a 37° C. water bath, and completely melt it in 1 min.
(§21) c) Transfer the cell suspension to a 15 mL centrifuge tube containing 8 mL medium, centrifuge 1000 rpm, 5 min.
(§22) d) Discard the supernatant, resuspend the cells in 1 mL medium, and transfer to a 75 cm^2 flask containing 15 mL medium, culture the cells in an incubator at 37° C., 5% CO2.
(§23) a) The medium was preheated in a 37° C. water bath in advance.
(§24) b) Collect cell to a 15 mL centrifuged tube, centrifuge at 1000 rpm for 5 min. Discard the supernatant, count, and make the cell density at 1×10^4 cells/mL, then place it in a 37° C., 5% CO2 incubator.
(§25) a) The test compound (20 mM stock solution) was diluted to 200uM with 100% DMSO as starting concentration then 3-fold serial diluted with “9+0” concentrations. in a 96-well dilution plate (Cat # P-05525, Labcyte);
(§26) b) The above compound solution was diluted 1:20 times with culture medium to prepare a 10 fold working solution;
(§27) a) Take cells in log phase growth, centrifuge at 1000 rpm for 5 min, then resuspend the cells with culture medium, then count cells;
(§28) b) Cells were seeded to 96-well cell culture plate with density at 2000 cells/well;
(§29) a) Compounds prepared at step 2 were added to cell plate with 15 μL per well, the final concentrations were 1000,333, 111.1, 37,12.3, 4.1, 1.4, 0.5, 0.2 and 0 nM, and the final concentration of DMSO was 0.5%. The blank control well was a culture medium (0.5% DMSO);
(§30) b) The cells were incubated for an additional 72 h in the incubator.
(§31) a) Remove the 96-well cell culture plate and add 50 μl of CTG reagent (CellTiter Glo kit, promega, Cat # G7573).
(§32) b) Plate was shaked for 2 min and then let it cool for 10 min at room temperature.
(§33) c) The Luminescence signal value was read using a PerkinElmer reader. Experimental data analysis
(§34) Data were analyzed using GraphPad Prism 6.0 software to obtain a fitted curve of compound activity.
(§35) Fit the Compound IC50 from non-linear regression equation:
(§36) Y=Bottom+(Top-Bottom)/(1+10((LogIC50-X)×Hill Slope));
(§37) X: The log of the concentration of the compound; Y: Luminescence value.
(§38) The cells proliferation assay results are expressed with IC50, shown as Table 2.

Data set [3] deals with Ba/F3-L858R/T790M/C797S (Homo sapiens, UniProt P00533, T790M/C797S/L858R, cells depend on it). Put plainly: Ba/F3-L858R/T790M/C797S cells proliferation assay (CellTiter Glo). Conditions: cell proliferation, 72 h, read-out: Ba/F3-L858R/T790M/C797S IC50. The data set is classed as cell-based. The protocol: as §19, §20, §21, §22, §23, §24, §25, §26, §27, §28, §29, §30, §31, §32, §33, §34, §35, §36, §37, §38
Chain of Ba/F3-L858R/T790M/C797S (P00533 whole entry T790M/C797S/L858R): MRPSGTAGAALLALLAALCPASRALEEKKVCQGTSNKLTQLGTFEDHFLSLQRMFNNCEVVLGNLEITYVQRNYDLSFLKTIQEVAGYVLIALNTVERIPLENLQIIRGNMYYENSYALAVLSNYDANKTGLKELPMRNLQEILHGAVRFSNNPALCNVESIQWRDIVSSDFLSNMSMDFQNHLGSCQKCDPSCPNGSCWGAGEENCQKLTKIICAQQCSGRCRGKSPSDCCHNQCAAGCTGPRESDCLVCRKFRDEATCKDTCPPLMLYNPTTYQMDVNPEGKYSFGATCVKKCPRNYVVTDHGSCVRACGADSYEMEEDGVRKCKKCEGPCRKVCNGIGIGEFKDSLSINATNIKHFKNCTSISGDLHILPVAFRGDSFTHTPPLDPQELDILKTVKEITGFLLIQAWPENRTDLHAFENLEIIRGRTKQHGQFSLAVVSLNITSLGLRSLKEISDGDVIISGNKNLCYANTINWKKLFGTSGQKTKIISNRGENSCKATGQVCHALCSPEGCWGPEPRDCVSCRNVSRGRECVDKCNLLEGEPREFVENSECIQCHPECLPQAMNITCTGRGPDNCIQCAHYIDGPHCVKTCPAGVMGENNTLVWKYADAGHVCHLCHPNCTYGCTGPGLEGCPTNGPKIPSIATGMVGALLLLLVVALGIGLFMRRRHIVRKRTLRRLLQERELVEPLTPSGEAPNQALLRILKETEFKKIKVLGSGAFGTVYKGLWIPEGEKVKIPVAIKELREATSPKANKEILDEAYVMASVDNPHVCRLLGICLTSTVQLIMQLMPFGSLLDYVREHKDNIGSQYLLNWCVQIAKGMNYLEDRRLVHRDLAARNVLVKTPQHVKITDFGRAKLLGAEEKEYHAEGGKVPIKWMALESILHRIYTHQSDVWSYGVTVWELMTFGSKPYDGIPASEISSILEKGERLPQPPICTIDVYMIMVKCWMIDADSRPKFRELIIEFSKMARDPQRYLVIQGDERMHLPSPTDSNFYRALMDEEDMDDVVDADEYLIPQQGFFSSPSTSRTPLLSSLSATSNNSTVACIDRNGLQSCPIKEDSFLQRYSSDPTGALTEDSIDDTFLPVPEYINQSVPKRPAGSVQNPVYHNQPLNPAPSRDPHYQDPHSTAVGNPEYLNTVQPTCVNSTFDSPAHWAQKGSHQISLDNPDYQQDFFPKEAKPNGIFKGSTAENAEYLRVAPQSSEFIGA
In general terms: In ATP-based viability assays light output follows the ATP content of the culture.

Data set [4] addresses EGFR L858R/T790M/C797S (Homo sapiens, UniProt P00533, C797S/L858R/T790M). Put plainly: Kinase assay (mobility shift), EGFR L858R/T790M/C797S. The data set is classed as biochemical. The protocol: [Worded in the source for another variant; this variant is reported under the same test.] as §1, §2, §3, §4, §5, §6, §7, §8, §9, §10, §11, §12, §13, §14, §15, §16, §17, §18

The test system of data set [5] is A431 (WT). Put plainly: A431 cells proliferation assay (CellTiter Glo). The data set is classed as cell-based. Conditions: Homo sapiens, A-431; cell proliferation, 72 h. The protocol: Test 4 A431 Cells Proliferation Assay
DMEM and 10% FBS and 1% PS.
as §23, §20, §21, §22, §24
a) The test compound (20 mM stock solution) was diluted to 2 mM with 100% DMSO as starting concentration then 3-fold serial diluted with “9+0” concentrations. in a 96-well dilution plate (Cat # P-05525, Labcyte);
b) The above compound solution was diluted 1:40 times with culture medium to prepare a 5 fold working solution;
as §27
b) Cells were seeded to 96-well cell culture plate with density at 5000 cells/well;
a) Compounds prepared at step 2 were added to cell plate with 40 μL per well, the final concentrations were 10000, 3333,1111.1, 370.4, 123.5, 41.2, 13.7, 4.6, 1.5 and 0 nM, and the final concentration of DMSO was 0.5%. The blank control well was a culture medium (0.5% DMSO);
as §30
a) Remove the 96-well cell culture plate and add 60 μl of CTG reagent (CellTiter Glo kit, promega, Cat # G7573).
as §32
c) The Luminescence signal value was read using a PerkinElmer reader.
Experimental Data Analysis
as §34, §35
Y=Bottom+(Top-Bottom)/(1+10((LogIC50-X)×HillSlope));
as §37
The cells proliferation assay results are expressed with IC50, shown as Table 3.

The nature of data set [6]: Pharmacokinetic assay, oral administration. The data set is classed as in vivo. Conditions: rat, male SD rats, p.o. 5 mg/kg, plasma, formulation differs per row. The protocol: Test 5 Pharmacokinetic Assay
Male SD rats, oral administration (intragastric administration), 3 in each group. Animals administered by gavage were fasted overnight before the experiment, and the fasting time was from at least 12 hours before administration to 4 hours after administration. The blood was collected using the orbital vein. Time of blood collection by oral administration: 15 min, 30 min, 1 h, 2 h, 4 h, 7 h, 24 h. The blood collection volume was 300 uL, and after anticoagulation with 2.0% EDTA, the blood was centrifuged at 4000 rpm for 5 min, and the blood plasma was taken for about 100 uL, and placed in −20° C. for examination. The plasma sample was analyzed using liquid chromatography tandem mass spectrometry (LC-MS/MS). Plasma concentration-time data for individual animals were analyzed using WinNonlin (V4.1, Pharsight) software with a non-compartmental model and the pharmacokinetic parameters of the test compounds were calculated.

Each structure is given as a SMILES string. Where two headings read alike, the source gives them in different places.

Chain of Ba/F3-Del19/T790M/C797S (P00533 with tags, fused parts or gaps DEL746-750/T790M/C797S, form open): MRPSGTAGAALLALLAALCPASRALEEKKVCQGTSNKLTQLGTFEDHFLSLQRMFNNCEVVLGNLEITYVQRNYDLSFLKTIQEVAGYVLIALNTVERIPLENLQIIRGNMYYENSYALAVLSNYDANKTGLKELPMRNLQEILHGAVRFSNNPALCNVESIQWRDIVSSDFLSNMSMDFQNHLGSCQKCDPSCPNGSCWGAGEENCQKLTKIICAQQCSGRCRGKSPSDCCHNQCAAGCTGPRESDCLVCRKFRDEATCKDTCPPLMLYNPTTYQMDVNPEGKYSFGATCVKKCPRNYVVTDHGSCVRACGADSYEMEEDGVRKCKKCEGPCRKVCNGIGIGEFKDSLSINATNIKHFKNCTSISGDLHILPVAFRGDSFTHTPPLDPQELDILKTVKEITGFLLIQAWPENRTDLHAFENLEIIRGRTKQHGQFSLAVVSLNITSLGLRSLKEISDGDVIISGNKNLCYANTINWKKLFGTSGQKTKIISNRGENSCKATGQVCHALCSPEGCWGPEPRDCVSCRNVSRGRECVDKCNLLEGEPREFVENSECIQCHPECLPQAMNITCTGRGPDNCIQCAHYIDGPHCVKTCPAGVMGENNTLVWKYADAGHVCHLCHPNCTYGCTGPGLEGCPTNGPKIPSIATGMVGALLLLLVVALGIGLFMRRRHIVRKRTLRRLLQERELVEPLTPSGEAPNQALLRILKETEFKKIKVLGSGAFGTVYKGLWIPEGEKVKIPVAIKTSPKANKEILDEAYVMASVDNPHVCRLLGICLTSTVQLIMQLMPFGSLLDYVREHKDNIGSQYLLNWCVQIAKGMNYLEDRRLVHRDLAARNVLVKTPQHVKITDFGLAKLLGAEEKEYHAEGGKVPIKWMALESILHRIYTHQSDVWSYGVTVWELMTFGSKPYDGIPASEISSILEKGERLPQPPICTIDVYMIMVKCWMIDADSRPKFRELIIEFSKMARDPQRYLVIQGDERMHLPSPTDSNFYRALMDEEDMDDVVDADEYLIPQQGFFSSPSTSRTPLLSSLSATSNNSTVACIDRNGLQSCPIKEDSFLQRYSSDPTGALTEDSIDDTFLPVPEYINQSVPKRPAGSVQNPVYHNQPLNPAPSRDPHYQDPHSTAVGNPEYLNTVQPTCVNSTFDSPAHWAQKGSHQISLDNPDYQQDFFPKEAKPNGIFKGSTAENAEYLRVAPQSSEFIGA
Chain of EGFR WT (P00533 25-1210): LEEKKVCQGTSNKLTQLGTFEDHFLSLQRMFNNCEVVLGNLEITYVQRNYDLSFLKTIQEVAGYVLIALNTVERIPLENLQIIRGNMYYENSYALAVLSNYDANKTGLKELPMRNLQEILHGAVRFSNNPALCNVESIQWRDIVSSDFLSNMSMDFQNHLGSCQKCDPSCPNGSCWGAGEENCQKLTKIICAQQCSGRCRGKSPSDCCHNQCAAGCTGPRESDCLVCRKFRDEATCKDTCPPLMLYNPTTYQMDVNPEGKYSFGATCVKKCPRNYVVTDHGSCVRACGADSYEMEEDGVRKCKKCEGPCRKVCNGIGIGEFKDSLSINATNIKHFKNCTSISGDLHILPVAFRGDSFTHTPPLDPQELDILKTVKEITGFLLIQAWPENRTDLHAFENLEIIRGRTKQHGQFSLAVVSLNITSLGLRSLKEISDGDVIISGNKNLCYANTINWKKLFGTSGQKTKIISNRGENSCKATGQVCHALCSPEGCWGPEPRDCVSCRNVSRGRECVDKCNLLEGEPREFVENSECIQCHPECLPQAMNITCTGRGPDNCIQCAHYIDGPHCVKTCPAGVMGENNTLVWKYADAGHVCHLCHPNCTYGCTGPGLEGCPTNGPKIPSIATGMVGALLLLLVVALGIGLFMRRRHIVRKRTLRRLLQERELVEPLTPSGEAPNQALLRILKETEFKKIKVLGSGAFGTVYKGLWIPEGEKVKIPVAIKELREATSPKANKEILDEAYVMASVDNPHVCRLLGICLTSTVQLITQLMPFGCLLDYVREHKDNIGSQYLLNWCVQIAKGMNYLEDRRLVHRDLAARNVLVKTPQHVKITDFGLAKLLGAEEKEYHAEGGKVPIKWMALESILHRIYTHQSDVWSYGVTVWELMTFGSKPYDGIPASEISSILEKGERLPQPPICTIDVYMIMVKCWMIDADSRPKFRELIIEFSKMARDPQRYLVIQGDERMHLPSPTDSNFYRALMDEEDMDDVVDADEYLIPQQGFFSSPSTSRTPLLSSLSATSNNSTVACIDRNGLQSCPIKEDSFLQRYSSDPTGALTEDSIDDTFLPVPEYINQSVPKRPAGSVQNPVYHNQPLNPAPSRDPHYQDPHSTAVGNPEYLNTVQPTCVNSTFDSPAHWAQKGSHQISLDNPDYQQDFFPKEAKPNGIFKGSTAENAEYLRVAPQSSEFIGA
Chain of EGFR L858R/T790M/C797S (P00533 25-1210 T790M/C797S/L858R): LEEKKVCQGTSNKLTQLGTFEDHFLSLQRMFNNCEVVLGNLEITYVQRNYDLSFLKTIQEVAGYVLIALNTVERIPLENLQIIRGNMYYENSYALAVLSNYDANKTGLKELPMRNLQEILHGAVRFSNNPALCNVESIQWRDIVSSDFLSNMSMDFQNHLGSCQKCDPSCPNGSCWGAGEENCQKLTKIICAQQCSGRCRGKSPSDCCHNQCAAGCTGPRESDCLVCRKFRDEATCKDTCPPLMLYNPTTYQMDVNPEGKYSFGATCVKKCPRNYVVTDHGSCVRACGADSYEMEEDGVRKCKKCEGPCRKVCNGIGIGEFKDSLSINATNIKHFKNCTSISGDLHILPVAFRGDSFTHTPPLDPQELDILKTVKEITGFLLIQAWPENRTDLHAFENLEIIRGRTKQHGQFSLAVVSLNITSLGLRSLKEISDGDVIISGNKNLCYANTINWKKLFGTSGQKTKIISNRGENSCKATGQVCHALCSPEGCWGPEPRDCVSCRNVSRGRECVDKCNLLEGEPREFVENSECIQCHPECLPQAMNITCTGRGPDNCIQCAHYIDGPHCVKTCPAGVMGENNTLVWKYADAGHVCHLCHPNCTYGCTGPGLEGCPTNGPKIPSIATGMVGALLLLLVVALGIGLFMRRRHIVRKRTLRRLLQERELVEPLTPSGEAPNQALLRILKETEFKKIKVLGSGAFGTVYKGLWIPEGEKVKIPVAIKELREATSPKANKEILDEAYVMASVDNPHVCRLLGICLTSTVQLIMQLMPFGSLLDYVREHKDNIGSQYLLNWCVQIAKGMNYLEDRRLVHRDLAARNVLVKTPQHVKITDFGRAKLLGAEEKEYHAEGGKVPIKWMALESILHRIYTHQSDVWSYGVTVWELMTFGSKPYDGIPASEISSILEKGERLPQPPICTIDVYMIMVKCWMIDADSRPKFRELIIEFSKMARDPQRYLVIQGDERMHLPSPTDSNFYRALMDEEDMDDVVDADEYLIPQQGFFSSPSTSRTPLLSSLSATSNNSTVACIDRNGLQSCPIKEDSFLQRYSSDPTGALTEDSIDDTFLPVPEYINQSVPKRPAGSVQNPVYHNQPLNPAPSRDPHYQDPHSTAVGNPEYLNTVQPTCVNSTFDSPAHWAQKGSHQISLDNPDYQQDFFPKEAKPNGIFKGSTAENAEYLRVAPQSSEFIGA

With `CNC1CCC2(CC1)CN(c1ccc(Nc3ncc(Cl)c(Nc4ccccc4P(C)(C)=O)n3)cc1C)C2` [Example 2, (2-((5-chloro-2-((3-methyl-4-(7-(methylamino)-2-azaspiro[3.5]nonan-2-yl)phenyl)amino)pyrimidin-4-yl)amino)phenyl)dimethylphosphine oxide], the IC50 (as a rule, the midpoint of a concentration-inhibition curve) in data set [1] was 66 nM; in data set [4] (class symbols) it was 2 to 10 nM. Further, the GI50 in data set [2] (class symbols) and in data set [3] (class symbols) was 10 to 50 nM throughout.
`CN(C)C1CCC2(CC1)CN(c1ccc(Nc3ncc(Cl)c(Nc4ccccc4P(C)(C)=O)n3)cc1Cl)C2` [Example 10, (2-((5-chloro-2-((3-chloro-4-(7-(dimethylamino)-2-azaspiro[3.5]nonan-2-yl)phenyl)amino)pyrimidin-4-yl)amino)phenyl)dimethylphosphine oxide]: the IC50 in data set [5] was determined as 41.6 nM. For the same compound, in data set [2] (numeric values), the GI50 amounted to 10.2 nM. Further, the GI50 in data set [3] (numeric values) was determined as 24.7 nM. In addition, in data set [4] (numeric values), the IC50 came to 0.7 nM. In data set [6], the AUC(0-t) – broadly, the area under the concentration-time curve up to a stated or last time point – came out at 443 ng·h/mL; the highest level (Cmax) was 35.1 ng/mL; the time of peak concentration (Tmax) (usually the time from dosing to the highest level) was 4 h; the half-life (usually how long it takes for the measured level to halve) was 9.06 h.
Turning to `Cc1cc(Nc2ncc(Cl)c(Nc3ccccc3P(C)(C)=O)n2)ccc1N1CCC2(CC1)CC(N(C)C)C2` [Example 15, (2-((5-chloro-2-((4-(2-(dimethylamino)-7-azaspiro[3.5]nonan-7-yl)-3-methylphenyl)amino)pyrimidin-4-yl)amino)phenyl)dimethylphosphine oxide], it took 27.6 nM to reach half-maximal inhibition in data set [5] (IC50). Besides, the GI50 in data set [2] (numeric values) is 15.5 nM. In addition, in data set [3] (numeric values), the GI50 was 17 nM. The concentration for half-maximal inhibition (IC50) in data set [4] (numeric values) was 0.7 nM. In data set [6], the area under the curve AUC(0-t) is 6940 ng·h/mL; the maximum concentration (Cmax) (as a rule, the highest concentration seen after dosing) came out at 575 ng/mL; the Tmax came to 6 h; the half-life was 4.38 h.
Turning to `Cc1cc(Nc2ncc(C)c(Nc3ccccc3P(C)(C)=O)n2)ccc1N1CC2(CC(N)C2)C1` [Example 22, (2-((2-((4-(6-amino-2-azaspiro[3.3]heptan-2-yl)-3-methylphenyl)amino)-5-methylpyrimidin-4-yl)amino)phenyl)dimethylphosphine oxide], the IC50 in data set [1] is 57 nM; in data set [4] (class symbols), 2 to 10 nM. Further, the GI50 in data set [2] (class symbols) and in data set [3] (class symbols) was above 50 nM in each case.
For `COc1cnc(Nc2ccc(N3CC4(CC(N)C4)C3)c(C)c2)nc1Nc1ccccc1P(C)(C)=O` [Example 23, (2-((2-((4-(6-amino-2-azaspiro[3.3]heptan-2-yl)-3-methylphenyl)amino)-5-methoxypyrimidin-4-yl)amino)phenyl)dimethylphosphine oxide], the figures for the IC50 in data set [1] and in data set [4] (numeric values) were 167 nM and 11 nM, respectively. The GI50 in data set [2] (class symbols) and in data set [3] (class symbols) was above 50 nM in each case.
Consider `Cc1cc(Nc2ncc(F)c(Nc3ccccc3P(C)(C)=O)n2)ccc1N1CC2(CC(N)C2)C1` [Example 24, (2-((2-((4-(6-amino-2-azaspiro[3.3]heptan-2-yl)-3-methylphenyl)amino)-5-fluoropyrimidin-4-yl)amino)phenyl)dimethylphosphine oxide], for which the IC50 in data set [1] turned out to be 101 nM; in data set [4] (numeric values) it was 18 nM. The GI50 in data set [2] (class symbols) and in data set [3] (class symbols) was above 50 nM each time.
As for `Cc1cc(Nc2ncc(Cl)c(Nc3ccccc3P(C)(C)=O)n2)ccc1N1CC2(CC(N)C2)C1` [Example 25, (2-((2-((4-(6-amino-2-azaspiro[3.3]heptan-2-yl)-3-methylphenyl)amino)-5-chloropyrimidin-4-yl)amino)phenyl)dimethylphosphine oxide], the half-inhibitory concentration (IC50) is 28 nM in data set [1] and 1.5 nM in data set [4] (numeric values). Moreover, the GI50 was determined as 18 nM in data set [2] (numeric values) and 24.2 nM in data set [3] (numeric values).
With `CP(C)(=O)c1ccccc1Nc1nc(Nc2ccc(N3CC4(CC(N)C4)C3)c(Cl)c2)ncc1Cl` [Example 26, (2-((2-((4-(6-amino-2-azaspiro[3.3]heptan-2-yl)-3-chlorophenyl)amino)-5-chloropyrimidin-4-yl)amino)phenyl)dimethylphosphine oxide], the IC50 in data set [1] was 37 nM; in data set [4] (numeric values), 1.7 nM. The GI50 in data set [2] (class symbols) and in data set [3] (class symbols) was 10 to 50 nM in each case.
For `COc1cnc(Nc2ccc(N3CCC4(CC3)CC(N)C4)c(C)c2)nc1Nc1ccccc1P(C)(C)=O` [Example 27, (2-((2-((4-(2-amino-7-azaspiro[3.5]nonan-7-yl)-3-methylphenyl)amino)-5-methoxypyrimidin-4-yl)amino)phenyl)dimethylphosphine oxide], the concentration for half-maximal inhibition (IC50) in data set [1] was found to be 127 nM; in data set [4] (numeric values), 4.4 nM. The GI50 in data set [2] (class symbols) and in data set [3] (class symbols) was above 50 nM each time.
